{"source": "patent US5739351A", "about": "“Perhydroisoindole derivatives as substance P antagonists” (Rhone-Poulenc Rorer S.A., priority 1994, dated 1998)"}
{"test_system": "increase in capillary permeability brought about by septide (a substance P agonist)", "assay": "inhibition of the increase in capillary permeability brought about by septide", "format": "in vivo", "conditions": "Cavia porcellus, po; guinea pig, capillary permeability increase induced by septide", "from_the_text": "The study of certain isoindole derivatives of general formula (I) in the technique of A. Saria et al., Arch.", "units": {"ED50": "mg/kg"}}
{"compound": "COc1ccccc1[C@H](C)C(=O)N1C[C@@H]2C[C@@H](CC#N)C[C@@](O)(c3ccccc3OC)[C@@H]2C1", "note": "[Example 1, (3aS,4S,6S,7aR)-6-Cyanomethyl-4-(2-methoxyphenyl)-2-[(S)-2-(2-methoxylphenyl)propionyl]perhydroisoindol-4-ol]", "ED50": 0.004}
{"compound": "COc1ccccc1[C@H](C)C(=O)N1C[C@@H]2C[C@@H](CC#N)C[C@@](O)(c3ccccc3F)[C@@H]2C1", "note": "[Example 13, (3aS,4S,6S,7aR)-6-Cyanomethyl-4-(2-fluorophenyl)-2-[(S)-2-(2-methoxyphenyl)propionyl]perhydroisoindol-4-ol]", "ED50": 0.02}
{"compound": "COc1ccccc1CC(=O)N1C[C@@H]2C[C@@H](CC#N)C[C@@](O)(c3ccccc3OC)[C@@H]2C1", "note": "[Example 5, (3aS, 4S, 6S, 7aR)-6-Cyanomethyl-4-(2-methoxyphenyl)-2-[(2-methoxyphenyl)acetyl]perhydroisoindol-4-ol]", "ED50": 0.32}
{"compound": "COc1ccccc1[C@]1(O)C[C@H](CC#N)C[C@H]2CN(C(=O)[C@@H](C)c3ccccc3O)C[C@H]21", "note": "[Example 4, (3aS,4S,6S,7aR)-6-Cyanomethyl-2-[(S)-2-(2-hydroxyphenyl)propionyl]-4-(2-methoxyphenyl)perhydroisoindol-4-ol]", "ED50": 0.004}
{"compound": "COc1ccccc1[C@]1(O)C[C@H](CC#N)C[C@H]2CN(C(=O)Cc3ccc(Cl)c(Cl)c3)C[C@H]21", "note": "[Example 7, (3aS,4S,6S,7aR)-6-Cyanomethyl-2-[(3,4-dichlorophenyl)acetyl]-4-(2-methoxyphenyl)perhydroisoindol-4-ol]", "ED50": 0.36}
{"compound": "COc1ccccc1[C@@]1(O)C[C@@H](CC#N)C[C@@H]2CN(C(=O)Cc3ccccc3N3CCCC3)C[C@@H]21", "note": "(racemic) [Example 2, (3aRS,4RS,6RS,7aSR)-6-Cyanomethyl-4-(2-methoxyphenyl)-2-{[2-(1-pyrrolidinyl)phenyl]acetyl} perhydroisoindol-4-ol]", "ED50": 1}
{"compound": "COc1ccccc1C(N)C(=O)N1C[C@@H]2C[C@@H](CC#N)C[C@@](O)(c3ccccc3OC)[C@@H]2C1", "note": "(stereo partly drawn) [Example 10]", "ED50": 0.05}
{"compound": "N#CC[C@@H]1C[C@@H]2CN(C(=O)Cc3ccccc3O)C[C@@H]2[C@@](O)(c2ccccc2F)C1", "note": "(racemic) [Example 14, (3aRS,4RS,6SR,7aSR)-6-Cyanomethyl-4-(2-fluorophenyl)-2-(2-hydroxyphenylacetyl)perhydroisoindol-4-ol]", "ED50": "0.2 to 0.4"}
{"compound": "COc1ccccc1CC(=O)N1C[C@@H]2C[C@@H](CNC#N)C[C@@](O)(c3ccccc3OC)[C@@H]2C1", "note": "(relative stereo) [Example 18, (3aRS,4RS,6SR,7aSR)-6-Cyanoaminomethyl-4-(2-methoxyphenyl)-2-[(2-methoxyphenyl)acetyl]perhydroisoindolol]", "ED50": 1}
{"test_system": "formaldehyde pain", "assay": "formaldehyde pain test in guinea pigs", "format": "in vivo", "conditions": "Cavia porcellus, po, guinea pig", "method": "Moreover, certain products according to the invention were studied in the formaldehyde pain test in guinea pigs. The ED50 of the product is determined in this way.", "units": {"ED50": "mg/kg"}}
{"compound": "COc1ccccc1[C@H](C)C(=O)N1C[C@@H]2C[C@@H](CC#N)C[C@@](O)(c3ccccc3OC)[C@@H]2C1", "note": "[Example 1, (3aS,4S,6S,7aR)-6-Cyanomethyl-4-(2-methoxyphenyl)-2-[(S)-2-(2-methoxylphenyl)propionyl]perhydroisoindol-4-ol]", "ED50": 1}
{"compound": "COc1ccccc1CC(=O)N1C[C@@H]2C[C@@H](CC#N)C[C@@](O)(c3ccccc3OC)[C@@H]2C1", "note": "[Example 5, (3aS, 4S, 6S, 7aR)-6-Cyanomethyl-4-(2-methoxyphenyl)-2-[(2-methoxyphenyl)acetyl]perhydroisoindol-4-ol]", "ED50": "3 to 30"}
{"compound": "COc1ccccc1[C@]1(O)C[C@H](CC#N)C[C@H]2CN(C(=O)[C@@H](N)c3ccccc3)C[C@H]21", "note": "[Example 9, (3aS,4S,6S,7aR)-2-[(S)-2-Amino-2-phenylacetyl]-6-cyanomethyl-4-(2-methoxyphenyl)perhydroisoindol-4-ol]", "ED50": "3 to 30"}
